From patent publication US8278309B2, “Synthetic mimetics of host defense and uses thereof” (priority 2008, dated 2012)
Values after ≈ are worked out from the molar mass of the structure shown. Where two headings read alike, the source gives them in different places.

Key:
[1] = system: MRSA ATCC 33591; test: Serial passage resistance, MRSA; format: cell-based, S. aureus; details: serial passage at 0.5×MIC
Procedure: (§1) Frozen bacterial stocks (20 μL) of S. aureus ATCC29213 or methicillin-resistant S. aureus (MRSA ATCC 33591) were inoculated into 3 mL cation-adjusted Mueller-Hinton medium and incubated at 37° C. on a shaker platform (250 rpm) overnight. The suspension was diluted to approximately 5×10^5 cfu/mL and inoculated into a polypropylene (Costar) 96-well round bottom plate (90 μL volumes). Compound stock solutions of Compound A and norfloxacin (Sigma Aldrich, St. Louis, Mo.; Catalogue# N9890) were prepared in DMSO and serial two-fold dilutions of compound were made in 0.01% acetic acid, 0.2% bovine serum albumin directly in the wells of the polypropylene plate at 10 μL/well. Final concentrations of Compound A were 50, 25, 12.5, 6.25, 3.13, 1.56, 0.78, 0.39, 0.19, 0.098, 0.049, and 0.024 μg/mL. Final concentration ranges of norfloxacin were 100, 50, 25, 12.5, 6.25, 3.13, 1.56, 0.78, 0.39, 0.19, 0.098, and 0.049 μg/mL. […] All samples were performed in triplicate. Following a 24 hour incubation at 37° C., cell growth was assessed by observing the presence of “acceptable growth”, defined by CLSI as a ≧2 mm button or definite turbidity. The MIC wells were defined as the lowest concentration where acceptable growth was not observed. For serial passage, 50 μL aliquots were taken from 2 of 3 replicate wells at 0.5×MIC and combined into 900 μL of fresh cation-adjusted Mueller-Hinton medium. The OD600 was measured and the cell suspensions were inoculated into polypropylene 96-well round bottom plates (90 μL volumes) at approximately 5×10^5 cfu/mL. Ten μL of compound stock solutions were added previously to the wells to achieve the concentration ranges for each compound described above. All samples were performed in triplicate. The plates were incubated for 24 hours at 37° C. This process was repeated for a total of 17 passages and MIC values were recorded at each passage.

[2] = system: MSSA ATCC 29213; test: Serial passage resistance, MSSA; format: cell-based, S. aureus; details: serial passage at 0.5×MIC
Procedure: as §1

[3] = system: Strept. agalactiae; test: MIC broth microdilution, Gram-positive clinical isolates; format: cell-based; details: Streptococcus agalactiae
Procedure: (§2) Compound A was evaluated in vitro in accordance with defined CLSI documents specific to the organisms (aerobic, anaerobic or yeast) tested in this study. Ampicillin, ceftazidime, cefuroxime, ciprofloxacin, linezolid, and vancomycin were tested alongside as comparator agents for aerobic bacteria; clindamycin and metronidazole were tested as comparators for anaerobes; fluconazole was tested as a comparator for yeast isolates. Stock solutions of Compound A were prepared in dimethyl sulfoxide (DMSO). Ampicillin, ceftazidime, cefuroxime, ciprofloxacin, linezolid, vancomycin, metronidazole, clindamycin, and fluconazole were prepared each according to its manufacturer's guideline.
(§3) Minimum inhibitory concentrations (MICs) in μg/ml were determined according to CLSI guideline M7-A7 by broth microdilution. All aerobes were tested using Mueller-Hinton broth medium with the exception of Streptococcus spp., which were tested using cation-adjusted Mueller-Hinton broth supplemented with 2-5% lysed horse blood.

[4] = system: Strept. viridians; test: as above; format: cell-based
Procedure: as §2, §3

[5] = system: Strept. pneumoniae; test: as above; format: cell-based; details: Streptococcus pneumoniae
Procedure: as §2, §3

[6] = system: Staph. aureus (MRSA); test: as above; format: cell-based; details: Staphylococcus aureus
Procedure: as §2, §3

[7] = system: Entero. faecium (VRE); test: as above; format: cell-based; details: Enterococcus faecium
Procedure: as §2, §3

[8] = system: Staph. spp. (coagulase−); test: as above; format: cell-based
Procedure: as §2, §3

[9] = system: Entero. faecalis; test: as above; format: cell-based; details: Enterococcus faecalis
Procedure: as §2, §3

[10] = system: Staph. spidermidis; test: as above; format: cell-based
Procedure: as §2, §3

[11] = system: Strept. pyogenes; test: as above; format: cell-based; details: Streptococcus pyogenes
Procedure: as §2, §3

[12] = system: Acinetobacter spp.; test: MIC broth microdilution, Gram-negative clinical isolates; format: cell-based; details: 2-3 isolates/organism
Procedure: as §2, §3

[13] = system: Citrobacter freundi; test: as above; format: cell-based
Procedure: as §2, §3

[14] = system: Escherichia coli; test: as above; format: cell-based
Procedure: as §2, §3

[15] = system: Klebsiella pneumoniae; test: as above; format: cell-based
Procedure: as §2, §3

[16] = system: Pseudomonas aeruginosa; test: as above; format: cell-based; details: 2-3 isolates/organism
Procedure: as §2, §3

[17] = system: Proteus vulgarisi; test: as above; format: cell-based
Procedure: as §2, §3

[18] = system: Stenotrophomonas maltophilia; test: as above; format: cell-based
Procedure: as §2, §3

[19] = system: Serratia marcescens; test: as above; format: cell-based
Procedure: as §2, §3

[20] = system: Morganella morganii; test: as above; format: cell-based
Procedure: as §2, §3

[21] = system: Proteus mirabilis; test: as above; format: cell-based
Procedure: as §2, §3

[22] = system: Haemophilus influenzae; test: as above; format: cell-based
Procedure: as §2, §3

[23] = system: Enterobacter cloacae; test: as above; format: cell-based
Procedure: as §2, §3

[24] = system: Klebsiella oxytoca; test: as above; format: cell-based
Procedure: as §2, §3

[25] = system: Providencia stuartii; test: as above; format: cell-based
Procedure: as §2, §3

[26] = system: Citrobacter koseri; test: as above; format: cell-based
Procedure: as §2, §3

[27] = system: Staph. saprophyticus; test: MIC broth microdilution, Gram-positive clinical isolates; format: cell-based; details: Staphylococcus saprophyticus
Procedure: as §2, §3

[28] = system: S. aureus; test: MIC or MIC90 vs S. aureus (selectivity table); format: cell-based; details: * marks MIC90
[29] = Staph. spidermidis, 2-3 isolates/organism, read-out: MIC
[30] = 2-3 isolates/organism, read-out: MIC
[31] = Proteus vulgarisi, 2-3 isolates/organism, read-out: MIC

SMILES: CCn1cc(C(=O)O)c(=O)c2cc(F)c(N3CCNCC3)cc21 [norfloxacin, reference compound]
- increase in MIC by passage 15 [1]: 64 fold
- rise in MIC values by passage 3 [1]: 4 doubling dilutions
- increase in MIC by passage 15 [2]: 128 fold
- rise in MIC values by passage 3 [2]: 4 doubling dilutions

SMILES: CC(C)(O/N=C(\C(=O)N[C@@H]1C(=O)N2C(C(=O)[O-])=C(C[n+]3ccccc3)CS[C@H]12)c1csc(N)n1)C(=O)O [Ceftazidime]
- MIC ([3]; Strept. agalactiae, 2-3 isolates/organism, read-out: MIC): 0.5 µg/mL (≈ 0.915 µM)
- MIC ([4]; Strept. viridians, 2-3 isolates/organism, read-out: MIC): 0.5 to 4 µg/mL (≈ 0.915 to 7.32 µM)
- MIC ([5]; Strept. pneumoniae, 2-3 isolates/organism, read-out: MIC): 0.25 µg/mL (≈ 0.457 µM)
- MIC ([6]; Staph. aureus (MRSA), 2-3 isolates/organism, read-out: MIC): 32 µg/mL (≈ 58.5 µM)
- MIC ([7]; Entero. faecium (VRE), 2-3 isolates/organism, read-out: MIC): > 64 µg/mL
- MIC ([8]; Staph. spp. (coagulase−), 2-3 isolates/organism, read-out: MIC): 16 to 32 µg/mL (≈ 29.3 to 58.5 µM)
- MIC ([9]; Entero. faecalis, 2-3 isolates/organism, read-out: MIC): > 64 µg/mL
- MIC [10, 29]: 16 to 32 µg/mL (≈ 29.3 to 58.5 µM)
- MIC ([11]; Strept. pyogenes, 2-3 isolates/organism, read-out: MIC): 0.12 µg/mL (≈ 0.22 µM)
- MIC [12]: 2 to 64 µg/mL (≈ 3.66 to 117 µM)
- MIC ([13]; Citrobacter freundi, 2-3 isolates/organism, read-out: MIC): 0.25 to 2 µg/mL (≈ 0.457 to 3.66 µM)
- MIC [14, 30]: 0.06 µg/mL (≈ 0.11 µM)
- MIC [15, 30]: 0.06 to 0.12 µg/mL (≈ 0.11 to 0.22 µM)
- MIC [16]: 1 to 8 µg/mL (≈ 1.83 to 14.6 µM)
- MIC [17, 31]: 0.12 µg/mL (≈ 0.22 µM)
- MIC [18, 30]: 4 to 8 µg/mL (≈ 7.32 to 14.6 µM)
- MIC [19, 30]: 0.12 to 0.25 µg/mL (≈ 0.22 to 0.457 µM)
- MIC [20, 30]: 2 to 16 µg/mL (≈ 3.66 to 29.3 µM)
- MIC [21, 30]: 0.03 to 0.06 µg/mL (≈ 0.0549 to 0.11 µM)
- MIC [22, 30]: 0.06 to 0.12 µg/mL (≈ 0.11 to 0.22 µM)
- MIC [23, 30]: 0.25 µg/mL (≈ 0.457 µM)
- MIC [24, 30]: 0.06 to 0.12 µg/mL (≈ 0.11 to 0.22 µM)
- MIC [25, 30]: 0.12 to 0.64 µg/mL (≈ 0.22 to 1.17 µM)
- MIC [26, 30]: 0.12 to 0.25 µg/mL (≈ 0.22 to 0.457 µM)

SMILES: CC(=O)NC[C@H]1CN(c2ccc(N3CCOCC3)c(F)c2)C(=O)O1 [Linezolid]
- MIC [10, 29]: 0.5 to 1 µg/mL (≈ 1.48 to 2.96 µM)
- MIC [17, 31]: > 16 µg/mL
- MIC [24, 30]: > 16 µg/mL

SMILES: CN[C@H](CC(C)C)C(=O)N[C@H]1C(=O)N[C@@H](CC(N)=O)C(=O)N[C@H]2C(=O)N[C@H]3C(=O)N[C@H](C(=O)N[C@H](C(=O)O)c4cc(O)cc(O)c4-c4cc3ccc4O)[C@H](O)c3ccc(c(Cl)c3)Oc3cc2cc(c3O[C@@H]2O[C@H](CO)[C@@H](O)[C@H](O)[C@H]2O[C@H]2C[C@](C)(N)[C@H](O)[C@H](C)O2)Oc2ccc(cc2Cl)[C@H]1O [Vancomycin]
- MIC [3]: 0.5 µg/mL (≈ 0.345 µM)
- MIC [4]: 0.5 to 1 µg/mL (≈ 0.345 to 0.69 µM)
- MIC [5]: 0.5 µg/mL (≈ 0.345 µM)
- MIC ([6]; MRSA): 0.5 to 1 µg/mL (≈ 0.345 to 0.69 µM)
- MIC ([7]; VRE): > 128 µg/mL
- MIC [8]: 1 to 2 µg/mL (≈ 0.69 to 1.38 µM)
- MIC [9]: 1 µg/mL (≈ 0.69 µM)
- MIC [10]: 2 µg/mL (≈ 1.38 µM)
- MIC [27]: 1 to 2 µg/mL (≈ 0.69 to 1.38 µM)
- MIC [11]: 0.5 µg/mL (≈ 0.345 µM)
- MIC ([13]; Citrobacter): > 128 µg/mL
- MIC [14]: > 128 µg/mL
- MIC [15]: > 128 µg/mL
- MIC [17]: > 128 µg/mL
- MIC [18]: 32 to 128 µg/mL (≈ 22.1 to 88.3 µM)
- MIC [19]: > 128 µg/mL
- MIC [20]: > 128 µg/mL
- MIC [21]: > 128 µg/mL
- MIC [22]: 128 µg/mL (≈ 88.3 µM)
- MIC [23]: > 128 µg/mL
- MIC [24]: > 128 µg/mL
- MIC [25]: > 128 µg/mL
- MIC [26]: > 128 µg/mL

SMILES: CC[C@H](C)[C@H](NC(=O)CN)C(=O)NCC(=O)N[C@@H](C)C(=O)N[C@H](C(=O)N[C@@H](CC(C)C)C(=O)N[C@@H](CCCCN)C(=O)N[C@H](C(=O)N[C@@H](CC(C)C)C(=O)N[C@H](C(=O)N[C@H](C(=O)NCC(=O)N[C@@H](CC(C)C)C(=O)N1CCC[C@H]1C(=O)N[C@@H](C)C(=O)N[C@@H](CC(C)C)C(=O)N[C@H](C(=O)N[C@@H](CO)C(=O)N[C@@H](Cc1c[nH]c2ccccc12)C(=O)N[C@H](C(=O)N[C@@H](CCCCN)C(=O)N[C@@H](CCCNC(=N)N)C(=O)N[C@@H](CCCCN)C(=O)N[C@@H](CCCNC(=N)N)C(=O)N[C@@H](CCC(N)=O)C(=O)N[C@@H](CCC(N)=O)C(N)=O)[C@@H](C)CC)[C@@H](C)CC)[C@@H](C)O)[C@@H](C)O)C(C)C)C(C)C [melittin, reference compound]
- MIC or MIC90* S. aureus [28]: 2 µg/mL (≈ 0.703 µM)
